Data on two compounds can be found in patent US4713247A, “Long-acting formulation of cefaclor” (priority 1983, dated 1987).

Series [1] relates to Escherichia coli NIH JC-2. The experiment in a line: Minimum inhibitory concentration, Escherichia coli NIH JC-2 (Table 1). It counts as cell-based. Particulars: NIHJC2, dilution method, Chemotherapy 29(1), 76-79 (1981). How it is done: (§1) Minimum Inhibitory Concentrations (MICs) were assayed according to the
(§2) dilution method disclosed in Chemotherapy 29(1), 76-79 (1981).

The test system of a further series is Escherichia coli No. 29. The experiment in a line: Minimum inhibitory concentration, Escherichia coli No. 29 (Table 1). As to conditions: dilution method, Chemotherapy 29(1), 76-79 (1981). It counts as cell-based. The method, then:
as §1, §2

Series [2] has as its system Escherichia coli NIH JC2 or Escherichia coli No. 29. Description: Time and concentration required for 99% sterilization, both strains together (Experiment 2). It counts as cell-based. As to conditions: in words. How it is done:
Additionally, the bactericidal effects of CCL were compared with those of CEX through the following in vitro tests (details of the tests are described afterwards). The concentrations of CCL or CEX and the time which are needed for diminishing 99% of the inoculum size were measured (FIG. 2, Table 2).
Heart infusion broth (Nissui Pharmaceutical Co.)
The test microorganisms at the logarithmic growth phase (about 10^6 CFU/ml) were spread into the aforementioned broth placed in tubes, to which CCL or CEX was applied at prefixed serial concentrations. Changing in the number of viable microorganisms was monitored in order to measure the time required for 99% sterilization of the inoculum size in each tube.

On the set-up of series [3]: species or system healthy and adult men (volunteers). As to conditions: human, in vivo, po. The method, then: 250 mg Capsules of Keflex® (Shionogi & Co., (LTD-Lilly) as CEX and 250 mg capsules of Kefral® (Shionogi & Co., LTD-Lilly) as CCL were employed.
The subjects, 12 healthy and adult men aged 21 to 39 years with 1.58 to 1.83 m^2 in the body surface area.
To each subject after fasting, who had no meal after supper of the previous day, were given orally the capsules with 100 ml of warm water, and the fasting was continued for 2 hours, except giving them a prefixed amount of water. CEX and CCL were given to the 12 subjects in a cross-over method, and any drugs other than CEX or CCL were not applied for one week.
The blood was collected 8 times, just before the administration, after 0.5, 0.75, 1, 1.5, 2, 3 and 6 hours. The plasma was centrifugally separated under cooling immediately after each collection, rapidly frozen and then preserved at -20° C. until the time of measurement.
The measurement were made within a week after the collection. After the frozen samples were allowed to melt at 4° C., a series of ten-fold dilution was prepared with 0.1M of phosphate buffer (pH 6.0), on which the blood level was measured by a band culture method using Micrococcus luteus ATCC 9341 as standard. Antibiotic Medium No. 8 (Difco; hereinafter referred to as ABM 8) was employed as a medium.

The subject of series [4] is Staphylococcus aureus No. 1037. The experiment in a line: Susceptibility (MIC) of Staphylococcus aureus No. 1037. Format: cell-based. The method, then:
(2)Susceptibility of the test miocroorganisms (MIC value):
(§3) 1.56 μg/ml: The value was determined by the above-identified method, where Muller-Hinton agar (Difco) as the medium was employed. Method 1.

Series [5] relates to Staphylococcus aureus No. 1021. Description: Susceptibility (MIC), Staphylococcus aureus No. 1021 (Table 3). Format: cell-based. How it is done: as §3
(§4) The same procedures as in Experiment 3. were applied to the following strains. The following MIC values were also determined according to the same method as in Experiment 3.
(§5) The values with *^1 or *^2 were determined by the method 1 or 2
(§6) disclosed in Experiment 3, respectively.

Series [6] deals with Staphylococcus aureus No. 6. Description: Susceptibility (MIC), Staphylococcus aureus No. 6 (Table 3). It counts as cell-based. The method, then: as §3, §4, §5, §6
Another series relates to Escherichia coli ES-80. The experiment in a line: Susceptibility (MIC), Escherichia coli ES-80 (Table 3). It counts as cell-based. The method, then:
as §3, §4, §5, §6

The next series has as its system Escherichia coli ES-68. The experiment in a line: Susceptibility (MIC), Escherichia coli ES-68 (Table 3). It counts as cell-based. How it is done:
as §3, §4, §5, §6

Another series concerns Escherichia coli ES-69. Description: Susceptibility (MIC), Escherichia coli ES-69 (Table 3). Format: cell-based. How it is done: as §3, §4, §5, §6
The conditions of series [7]: relative to CEX; cited from earlier work.
For series [8] the following is noted: clinical use; cited from earlier work.

≈ marks a conversion by molar mass, not a printed value. Entries after “also recorded” stand apart in the source; their conditions may differ. Read-outs that look alike come from different tables or passages of the source.

Take `CC1=C(C(=O)O)N2C(=O)[C@@H](NC(=O)[C@H](N)c3ccccc3)[C@H]2SC1` [CEX]: the MIC – broadly, the lowest concentration found to suppress growth – in [1] stood at 6.25 µg/mL (≈ 18 µM); in the series with Escherichia coli No. 29 it was 3.13 µg/mL (≈ 9.01 µM). Further, the “concentration needed for diminishing 99% of the inoculum size” value in series [2] (multiples of MIC) is reported as “at least one MIC; also recorded: one or more MICs”.

Consider `N[C@@H](C(=O)N[C@@H]1C(=O)N2C(C(=O)O)=C(Cl)CS[C@H]12)c1ccccc1` [CCL, 3-chloro-7-D-(2-phenylglycinamido)-3-cephem-4-carboxylic acid monohydrate], for which, in series [3], the “half-life compared with CEX” value is “half-life shorter”. Moreover, the MIC in series [1] is 3.13 µg/mL; against Escherichia coli No. 29 it was 1.56 µg/mL; in [4] (NO.1037, Method 1, Muller-Hinton agar) it was 1.56 µg/mL; in series [4] (NO.1037, Method 2, ABM 3 broth, 18 to 20 hours after inoculation (10^5 CFU/ml)), 3.13 µg/mL; in [5] (NO.1021, 10^5 CFU/ml, Method 2), 3.13 µg/mL; in series [5] (NO.1021, 10^6 CFU/ml, Method 1), 1.56 µg/mL. In addition, the MIC in series [6] (NO.6, 10^5 CFU/ml, Method 2) worked out at 6.25 µg/mL; in series [6] (NO.6, 10^6 CFU/ml, Method 1), 3.13 µg/mL; against Escherichia coli ES-80 (ES80, 10^5 CFU/ml, Method 2), 3.13 µg/mL; with Escherichia coli ES-80 (ES80, 10^6 CFU/ml, Method 1), 1.56 µg/mL; against Escherichia coli ES-68 (ES68, 10^5 CFU/ml, Method 2), 3.13 µg/mL; with Escherichia coli ES-68 (ES68, 10^6 CFU/ml, Method 1), 1.56 µg/mL. Besides, the MIC was 3.13 µg/mL in the series with Escherichia coli ES-69 (10^5 CFU/ml, Method 2) and 3.13 µg/mL with Escherichia coli ES-69 (Escherichia coli, ES69, 10^6 CFU/ml, Method 1, read-out: MIC). The “time required for 99% sterilization compared with CEX” value in series [2] (relative to CEX, monohydrate) is reported as “within a shorter period of time than CEX; also recorded: much shorter at any MIC of 1/2 to about 64 than for CEX”. In series [7], the “antimicrobial spectrum compared with CEX” value was “broader spectrum”. For the same compound, the “bactericidal action compared with CEX” value in [7] is on record as “more potent bactericidal action than CEX”. The clinical effectiveness result in series [8] was “highly effective in clinical use”.
